Experiments:
[1] = test system: bluegrass; experiment: Test D preemergence; type: in vivo, Poa annua; conditions: for Plant response rating, Bluegrass: Preemergence, scale 0 to 100
Procedure, shortened: (§1)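 Postemergence activity was tested on plants at the 1- to 4-leaf stage (2–18 cm) grown in peat-based medium, and preemergence activity on seeds in silt loam, with chemicals in a surfactant-containing non-phytotoxic solvent. Controlled-environment growth lasted 14–21 days before visual 0–100 scoring.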

[2] = test system: galium; experiment: Test D preemergence; type: in vivo, Galium aparine; conditions: Preemergence, scale 0 to 100
Procedure, shortened: as §1

[3] = test system: bromegrass, downy; experiment: Test D preemergence; type: in vivo, Bromus tectorum; conditions: for Plant response rating, Bromegrass, Downy: Preemergence, scale 0 to 100
Procedure, shortened: as §1

[4] = test system: field poppy; experiment: Test D preemergence; type: in vivo, Papaver rhoeas; conditions: for Plant response rating, Field Poppy: Preemergence, scale 0 to 100
Procedure, shortened: as §1

[5] = test system: field violet; experiment: Test D preemergence; type: in vivo, Viola arvensis; conditions: for Plant response rating, Field Violet: Preemergence, scale 0 to 100
Procedure, shortened: as §1

[6] = test system: foxtail, green; experiment: Test D preemergence; type: in vivo, Setaria viridis; conditions: for Plant response rating, Foxtail, Green: Preemergence, scale 0 to 100
Procedure, shortened: as §1

[7] = test system: oilseed rape; experiment: Test D preemergence; type: in vivo, Brassica napus; conditions: for Plant response rating, Oilseed Rape: Preemergence, scale 0 to 100
Procedure, shortened: as §1

[8] = test system: wheat, spring; experiment: Test D preemergence; type: in vivo, Triticum aestivum; conditions: for Plant response rating, Wheat, Spring: Preemergence, scale 0 to 100
Procedure, shortened: as §1

[9] = test system: wheat, winter; experiment: Test D preemergence; type: in vivo, Triticum aestivum; conditions: for Plant response rating, Wheat, Winter: Preemergence, scale 0 to 100
Procedure, shortened: as §1

[10] = test system: windgrass; experiment: Test D preemergence; type: in vivo, Apera spica-venti; conditions: for Plant response rating, Windgrass: Preemergence, scale 0 to 100
Procedure, shortened: as §1

[11] = test system: bluegrass; experiment: Test D postemergence; type: in vivo, Poa annua; conditions: scale 0 to 100
Procedure, shortened: as §1

[12] = test system: blackgrass; experiment: Test D postemergence; type: in vivo, Alopecurus myosuroides; conditions: scale 0 to 100
Procedure, shortened: as §1

[13] = test system: canarygrass; experiment: Test D postemergence; type: in vivo, Phalaris minor; conditions: scale 0 to 100
Procedure, shortened: as §1

[14] = test system: chickweed; experiment: Test D postemergence; type: in vivo, Stellaria media; conditions: scale 0 to 100
Procedure, shortened: as §1

[15] = test system: deadnettle; experiment: Test D postemergence; type: in vivo, Lamium amplexicaule; conditions: scale 0 to 100
Procedure, shortened: as §1

[16] = test system: ryegrass, Italian; experiment: Test D postemergence; type: in vivo, Lolium multiflorum; conditions: scale 0 to 100
Procedure, shortened: as §1

[17] = test system: kochia; experiment: Test D postemergence; type: in vivo, Kochia scoparia; conditions: scale 0 to 100
Procedure, shortened: as §1

[18] = test system: oilseed rape; experiment: Test D postemergence; type: in vivo, Brassica napus; conditions: scale 0 to 100
Procedure, shortened: as §1

[19] = test system: buckwheat, wild; experiment: Test D postemergence; type: in vivo, Polygonum convolvulus; conditions: scale 0 to 100
Procedure, shortened: as §1

[20] = test system: mustard, wild; experiment: Test D postemergence; type: in vivo, Sinapis arvensis; conditions: scale 0 to 100
Procedure, shortened: as §1

[21] = test system: radish, wild; experiment: Test D postemergence; type: in vivo, Raphanus raphanistrum; conditions: scale 0 to 100
Procedure, shortened: as §1

[22] = 16 g ai/ha, taken as preemergence

## O=C(NC1CC1)c1cc(CCF)n(Cc2ccnc(C(F)(F)F)c2)n1 [Compound 176]
[1]; [22]
  Plant response rating (scale 0 to 100), Bluegrass: 0
[1]; 31 g ai/ha
  Plant response rating, Bluegrass: 0
[1]; 62 g ai/ha
  Plant response rating, Bluegrass: 10
[1]; 125 g ai/ha
  Plant response rating, Bluegrass: 20
[2]; 62 g ai/ha
  Plant response rating, Galium: 60
[2]; 125 g ai/ha
  Plant response rating, Galium: 85
[3]; [22]
  Plant response rating (scale 0 to 100), Bromegrass, Downy: 0
[3]; 31 g ai/ha
  Plant response rating, Bromegrass, Downy: 0
[3]; 62 g ai/ha
  Plant response rating, Bromegrass, Downy: 15
[3]; 125 g ai/ha
  Plant response rating, Bromegrass, Downy: 25
[4]; [22]
  Plant response rating (scale 0 to 100), Field Poppy: 10
[4]; 62 g ai/ha
  Plant response rating, Field Poppy: 55
[4]; 125 g ai/ha
  Plant response rating, Field Poppy: 100
[5]; [22]
  Plant response rating (scale 0 to 100), Field Violet: 0
[5]; 62 g ai/ha
  Plant response rating, Field Violet: 50
[5]; 125 g ai/ha
  Plant response rating, Field Violet: 65
[6]; [22]
  Plant response rating (scale 0 to 100), Foxtail, Green: 0
[6]; 62 g ai/ha
  Plant response rating, Foxtail, Green: 15
[6]; 125 g ai/ha
  Plant response rating, Foxtail, Green: 40
[7]; [22]
  Plant response rating (scale 0 to 100), Oilseed Rape: 0
[7]; 62 g ai/ha
  Plant response rating, Oilseed Rape: 35
[7]; 125 g ai/ha
  Plant response rating, Oilseed Rape: 65
[8]; [22]
  Plant response rating (scale 0 to 100), Wheat, Spring: 0
[8]; 62 g ai/ha
  Plant response rating, Wheat, Spring: 0
[8]; 125 g ai/ha
  Plant response rating, Wheat, Spring: 5
[9]; [22]
  Plant response rating (scale 0 to 100), Wheat, Winter: 0
[9]; 62 g ai/ha
  Plant response rating, Wheat, Winter: 0
[9]; 125 g ai/ha
  Plant response rating, Wheat, Winter: 5
[10]; [22]
  Plant response rating (scale 0 to 100), Windgrass: 0
[10]; 62 g ai/ha
  Plant response rating, Windgrass: 10
[10]; 125 g ai/ha
  Plant response rating, Windgrass: 40
[11]; Postemergence, 16 g ai/ha
  Plant response rating, Bluegrass: 5
[11]; Postemergence, 31 g ai/ha
  Bluegrass plant response rating: 15
[11]; Postemergence, 125 g ai/ha
  Bluegrass plant response rating: 25
[11]; postemergence, 62 g ai/ha
  Bluegrass plant response rating: 15
[12]; Postemergence, 16 g ai/ha
  Plant response rating, Blackgrass: 5
[12]; Postemergence, 31 g ai/ha
  Blackgrass plant response rating: 15
[12]; Postemergence, 125 g ai/ha
  Blackgrass plant response rating: 20
[12]; postemergence, 62 g ai/ha
  Blackgrass plant response rating: 15
[13]; Postemergence, 16 g ai/ha
  Plant response rating, Canarygrass: 5
[13]; Postemergence, 31 g ai/ha
  Canarygrass plant response rating: 15
[13]; Postemergence, 125 g ai/ha
  Canarygrass plant response rating: 20
[13]; postemergence, 62 g ai/ha
  Canarygrass plant response rating: 15
[14]; Postemergence, 16 g ai/ha
  Plant response rating, Chickweed: 20
[14]; Postemergence, 31 g ai/ha
  Chickweed plant response rating: 35
[14]; Postemergence, 125 g ai/ha
  Chickweed plant response rating: 65
[14]; postemergence, 62 g ai/ha
  Chickweed plant response rating: 35
[15]; Postemergence, 16 g ai/ha
  Plant response rating, Deadnettle: 10
[15]; Postemergence, 31 g ai/ha
  Deadnettle plant response rating: 35
[15]; Postemergence, 125 g ai/ha
  Deadnettle plant response rating: 45
[15]; postemergence, 62 g ai/ha
  Deadnettle plant response rating: 35
[16]; Postemergence, 16 g ai/ha
  Plant response rating, Ryegrass, Italian: 5
[16]; Postemergence, 31 g ai/ha
  Ryegrass, Italian plant response rating: 5
[16]; Postemergence, 125 g ai/ha
  Ryegrass, Italian plant response rating: 10
[16]; postemergence, 62 g ai/ha
  Ryegrass, Italian plant response rating: 5
[17]; Postemergence, 16 g ai/ha
  Plant response rating, Kochia: 30
[17]; Postemergence, 31 g ai/ha
  Kochia plant response rating: 65
[17]; Postemergence, 125 g ai/ha
  Kochia plant response rating: 70
[17]; postemergence, 62 g ai/ha
  Kochia plant response rating: 65
[18]; Postemergence, 16 g ai/ha
  Plant response rating, Oilseed Rape: 20
[18]; Postemergence, 31 g ai/ha
  Oilseed Rape plant response rating: 40
[18]; Postemergence, 125 g ai/ha
  Oilseed Rape plant response rating: 55
[18]; postemergence, 62 g ai/ha
  Oilseed Rape plant response rating: 40
[19]; Postemergence, 16 g ai/ha
  Plant response rating, Buckwheat, Wild: 30
[19]; Postemergence, 31 g ai/ha
  Buckwheat, Wild plant response rating: 55
[19]; Postemergence, 125 g ai/ha
  Buckwheat, Wild plant response rating: 65
[19]; postemergence, 62 g ai/ha
  Buckwheat, Wild plant response rating: 55
[20]; Postemergence, 16 g ai/ha
  Plant response rating, Mustard, Wild: 25
[20]; Postemergence, 31 g ai/ha
  Mustard, Wild plant response rating: 55
[20]; Postemergence, 125 g ai/ha
  Mustard, Wild plant response rating: 70
[20]; postemergence, 62 g ai/ha
  Mustard, Wild plant response rating: 55
[21]; Postemergence, 31 g ai/ha
  Radish, Wild plant response rating: 65
[21]; Postemergence, 125 g ai/ha
  Radish, Wild plant response rating: 65
[21]; postemergence, 62 g ai/ha
  Radish, Wild plant response rating: 65
